Measurements as given in US20250066286A1, “COMPOSITIONS OF (Z)-ENDOXIFEN AND METHODS OF ENRICHMENT THEREOF” (Atossa Therapeutics, Inc., priority 2022, published 2025).

Assay: Stability of (Z)-Endoxifen in acetone (HPLC peak table over time)
Format: physicochemical
Settings: for E-form, RT 14.58, RRT 0.96 / HPLC peak RT 13.84, RRT 0.91 / HPLC peak RT 20.32, RRT 1.34 / HPLC peak RT 20.51, RRT 1.35 / HPLC peak RT 21.68, RRT 1.43 / HPLC peak RT 22.88, RRT 1.51 / HPLC peak RT 27.15, RRT 1.79 / HPLC peak RT 27.21, RRT 1.80 / HPLC peak RT 27.45, RRT 1.81 / HPLC peak RT 27.88, RRT 1.84 / HPLC peak RT 4.37, RRT 0.28 / Z-form, RT 15.13, RRT 1.00: acetone at reflux (56° C.); for HPLC peak RT 4.37, RRT 0.28 / Z-form, RT 15.13, RRT 1.00 / Z-form, RT 16.25, RRT 1.00: in % (unit assumed); for E-form, RT 15.40, RRT 0.95 / HPLC peak RT 3.14, RRT 0.19 / HPLC peak RT 4.25, RRT 0.26 / HPLC peak RT 14.68, RRT 0.90 / HPLC peak RT 17.69, RRT 1.09 / HPLC peak RT 20.47, RRT 1.26 / HPLC peak RT 20.80, RRT 1.28 / HPLC peak RT 21.56, RRT 1.33 / HPLC peak RT 21.83, RRT 1.34 / HPLC peak RT 22.68, RRT 1.39 / HPLC peak RT 22.76, RRT 1.40 / Z-form, RT 16.25, RRT 1.00: acetone, 40° C.

For `CC/C(=C(\c1ccc(O)cc1)c1ccc(OCCNC)cc1)c1ccccc1` [(Z)-endoxifen, (Z)-4-(1-(4-(2-(methylamino)ethoxy)phenyl)-2-phenylbut-1-enyl)phenol], the E-form, RT 14.58, RRT 0.96 (3 hr) was 0.54%, the HPLC peak RT 13.84, RRT 0.91 (3 hr) was 0.05% and the HPLC peak RT 20.32, RRT 1.34 (3 hr) was 0.37%. The HPLC peak RT 20.51, RRT 1.35 (3 hr) was 0.06%, the HPLC peak RT 21.68, RRT 1.43 (3 hr) was 0.16% and the HPLC peak RT 22.88, RRT 1.51 (3 hr) was 0.13%. For the same compound, the HPLC peak RT 27.15, RRT 1.79 (3 hr) was 0.03%, the HPLC peak RT 27.21, RRT 1.80 (3 hr) was 0.05% and the HPLC peak RT 27.45, RRT 1.81 (3 hr) was 0.24%. For the same compound, the HPLC peak RT 27.88, RRT 1.84 (3 hr) was 0.04%, the “HPLC peak RT 4.37, RRT 0.28” value (3 hr) was 0.96 and the “Z-form, RT 15.13, RRT 1.00” value (3 hr) was 96.67. It also gave an E-form, RT 14.58, RRT 0.96 (19 hr) of 1.01%, an HPLC peak RT 13.84, RRT 0.91 (19 hr) of 0.04% and an HPLC peak RT 20.32, RRT 1.34 (19 hr) of 0.12%. The HPLC peak RT 20.51, RRT 1.35 (19 hr) was 0.04%, the HPLC peak RT 21.68, RRT 1.43 (19 hr) was 0.14% and the HPLC peak RT 22.88, RRT 1.51 (19 hr) was 0.09%. It also gave an HPLC peak RT 27.15, RRT 1.79 (19 hr) of 0.02%, an HPLC peak RT 27.21, RRT 1.80 (19 hr) of 0.04% and an HPLC peak RT 27.45, RRT 1.81 (19 hr) of 0.22%. The HPLC peak RT 27.88, RRT 1.84 (19 hr) was 0.04%, the “HPLC peak RT 4.37, RRT 0.28” value (19 hr) was 5.74 and the “Z-form, RT 15.13, RRT 1.00” value (19 hr) was 91.92. It also gave an E-form, RT 14.58, RRT 0.96 (27 hr) of 1.53%, an HPLC peak RT 13.84, RRT 0.91 (27 hr) of 0.04% and an HPLC peak RT 20.32, RRT 1.34 (27 hr) of 0.09%. The HPLC peak RT 20.51, RRT 1.35 (27 hr) was 0.1%, the HPLC peak RT 21.68, RRT 1.43 (27 hr) was 0.15% and the HPLC peak RT 22.88, RRT 1.51 (27 hr) was 0.06%. It also gave an HPLC peak RT 27.15, RRT 1.79 (27 hr) of 0.03%, an HPLC peak RT 27.21, RRT 1.80 (27 hr) of 0.04% and an HPLC peak RT 27.45, RRT 1.81 (27 hr) of 0.22%. The HPLC peak RT 27.88, RRT 1.84 (27 hr) was 0.04%, the “HPLC peak RT 4.37, RRT 0.28” value (27 hr) was 7.93 and the “Z-form, RT 15.13, RRT 1.00” value (27 hr) was 89.05. It also gave an E-form, RT 14.58, RRT 0.96 (43 hr) of 5.33%, an HPLC peak RT 13.84, RRT 0.91 (43 hr) of 0.04% and an HPLC peak RT 20.32, RRT 1.34 (43 hr) of 0.13%. For the same compound, the HPLC peak RT 20.51, RRT 1.35 (43 hr) was 0.05%, the HPLC peak RT 21.68, RRT 1.43 (43 hr) was 0.13% and the HPLC peak RT 22.88, RRT 1.51 (43 hr) was 0.05%. It also gave an HPLC peak RT 27.15, RRT 1.79 (43 hr) of 0.04%, an HPLC peak RT 27.21, RRT 1.80 (43 hr) of 0.05% and an HPLC peak RT 27.45, RRT 1.81 (43 hr) of 0.15%. The HPLC peak RT 27.88, RRT 1.84 (43 hr) was 0.04%, the “HPLC peak RT 4.37, RRT 0.28” value (43 hr) was 12.64 and the “Z-form, RT 15.13, RRT 1.00” value (43 hr) was 80.36. It also gave an E-form, RT 14.58, RRT 0.96 (T0) of 0.3%, an HPLC peak RT 13.84, RRT 0.91 (T0) of 0.04% and an HPLC peak RT 20.32, RRT 1.34 (T0) of 0.04%. The HPLC peak RT 20.51, RRT 1.35 (T0) was 0.12%, the HPLC peak RT 21.68, RRT 1.43 (T0) was 0.15% and the HPLC peak RT 22.88, RRT 1.51 (T0) was 0.03%. For the same compound, the HPLC peak RT 27.15, RRT 1.79 (T0) was 0.03%, the HPLC peak RT 27.21, RRT 1.80 (T0) was 0.05% and the HPLC peak RT 27.45, RRT 1.81 (T0) was 0.17%. For the same compound, the HPLC peak RT 27.88, RRT 1.84 (T0) was 0.04%, the “HPLC peak RT 4.37, RRT 0.28” value (T0) was 0.05 and the “Z-form, RT 15.13, RRT 1.00” value (T0) was 98.67. The E-form, RT 15.40, RRT 0.95 (4 hr) was 0.78%, the HPLC peak RT 3.14, RRT 0.19 (4 hr) was 0.15% and the “HPLC peak RT 4.25, RRT 0.26” value (4 hr) was 0.57. The HPLC peak RT 14.68, RRT 0.90 (4 hr) was 0.04%, the HPLC peak RT 17.69, RRT 1.09 (4 hr) was 0.08% and the “HPLC peak RT 20.47, RRT 1.26” value (4 hr) was 0.04. It also gave an HPLC peak RT 20.80, RRT 1.28 (4 hr) of 0.15%, an HPLC peak RT 21.56, RRT 1.33 (4 hr) of 0.08% and an HPLC peak RT 21.83, RRT 1.34 (4 hr) of 0.1%. The HPLC peak RT 22.68, RRT 1.39 (4 hr) was 0.1%, the HPLC peak RT 22.76, RRT 1.40 (4 hr) was 0.08% and the “Z-form, RT 16.25, RRT 1.00” value (4 hr) was 97.28. The E-form, RT 15.40, RRT 0.95 (20 hr) was 1.03%, the HPLC peak RT 3.14, RRT 0.19 (20 hr) was 0.11% and the “HPLC peak RT 4.25, RRT 0.26” value (20 hr) was 2.00. The HPLC peak RT 14.68, RRT 0.90 (20 hr) was 0.04%, the HPLC peak RT 17.69, RRT 1.09 (20 hr) was 0.08% and the “HPLC peak RT 20.47, RRT 1.26” value (20 hr) was 0.05. The HPLC peak RT 20.80, RRT 1.28 (20 hr) was 0.21%, the HPLC peak RT 21.56, RRT 1.33 (20 hr) was 0.08% and the HPLC peak RT 21.83, RRT 1.34 (20 hr) was 0.08%. For the same compound, the HPLC peak RT 22.68, RRT 1.39 (20 hr) was 0.09%, the HPLC peak RT 22.76, RRT 1.40 (20 hr) was 0.01% and the “Z-form, RT 16.25, RRT 1.00” value (20 hr) was 95.35. For the same compound, the E-form, RT 15.40, RRT 0.95 (24 hr) was 1.14%, the HPLC peak RT 3.14, RRT 0.19 (24 hr) was 0.13% and the “HPLC peak RT 4.25, RRT 0.26” value (24 hr) was 2.81. The HPLC peak RT 14.68, RRT 0.90 (24 hr) was 0.04%, the HPLC peak RT 17.69, RRT 1.09 (24 hr) was 0.09% and the “HPLC peak RT 20.47, RRT 1.26” value (24 hr) was 0.05. It also gave an HPLC peak RT 20.80, RRT 1.28 (24 hr) of 0.17%, an HPLC peak RT 21.56, RRT 1.33 (24 hr) of 0.09% and an HPLC peak RT 21.83, RRT 1.34 (24 hr) of 0.01%. The HPLC peak RT 22.68, RRT 1.39 (24 hr) was 0.07%, the HPLC peak RT 22.76, RRT 1.40 (24 hr) was 0.02% and the “Z-form, RT 16.25, RRT 1.00” value (24 hr) was 94.73. For the same compound, the E-form, RT 15.40, RRT 0.95 (28 hr) was 1.26%, the HPLC peak RT 3.14, RRT 0.19 (28 hr) was 0.11% and the “HPLC peak RT 4.25, RRT 0.26” value (28 hr) was 3.14. The HPLC peak RT 14.68, RRT 0.90 (28 hr) was 0.04%, the HPLC peak RT 17.69, RRT 1.09 (28 hr) was 0.1% and the “HPLC peak RT 20.47, RRT 1.26” value (28 hr) was 0.06. It also gave an HPLC peak RT 20.80, RRT 1.28 (28 hr) of 0.19%, an HPLC peak RT 21.56, RRT 1.33 (28 hr) of 0.09% and an HPLC peak RT 21.83, RRT 1.34 (28 hr) of 0.01%. For the same compound, the HPLC peak RT 22.68, RRT 1.39 (28 hr) was 0.09%, the HPLC peak RT 22.76, RRT 1.40 (28 hr) was 0.02% and the “Z-form, RT 16.25, RRT 1.00” value (28 hr) was 93.99. The E-form, RT 15.40, RRT 0.95 (T0) was 0.65%, the HPLC peak RT 3.14, RRT 0.19 (T0) was 0.16% and the “HPLC peak RT 4.25, RRT 0.26” value (T0) was 0.12. For the same compound, the HPLC peak RT 14.68, RRT 0.90 (T0) was 0.04%, the HPLC peak RT 17.69, RRT 1.09 (T0) was 0.08% and the “HPLC peak RT 20.47, RRT 1.26” value (T0) was 0.03. It also gave an HPLC peak RT 20.80, RRT 1.28 (T0) of 0.07%, an HPLC peak RT 21.56, RRT 1.33 (T0) of 0.08% and an HPLC peak RT 21.83, RRT 1.34 (T0) of 0.07%. For the same compound, the HPLC peak RT 22.68, RRT 1.39 (T0) was 0.03%, the HPLC peak RT 22.76, RRT 1.40 (T0) was 0.06% and the “Z-form, RT 16.25, RRT 1.00” value (T0) was 98.28. For the same compound, the “Stability of (Z)-endoxifen produced from methods using acetone recrystallization only” value (summary of TABLES 2 and 3) was “unstable”.
